Data taken from US20240197702A1, “ANTISEPTIC-ANTIBIOTIC GUMBOS EFFECTIVE AGAINST GRAM-NEGATIVE PATHOGENS” (priority 2020, published 2024).
Counter-ions that a name gives are not always drawn.

How the values were obtained:
[1] = tested on: clinical isolates of N. gonorrhoeae; test: MIC by micro-broth dilution against N. gonorrhoeae clinical isolates; type: cell-based, Neisseria gonorrhoeae; settings: Neisseria gonorrhoeae
Experimental: (§1) Minimum Inhibitory Concentrations of GUMBOS against N. gonorrhoeae: Clinical isolates of N. gonorrhoeae and N. gonorrhoeae ATCC 49226 were obtained from Louisiana State University Health Sciences Center New Orleans HIV Outpatient Clinic. Minimum inhibitory concentrations (MICs) of GUMBOS, constituent parent drugs, azithromycin, and unreacted mixtures were determined using micro-broth dilution in 96-well plates. […] Stock solutions were diluted to a known working concentration and 100 μL were added to the first row of the plate. For susceptibility testing of N. gonorrhoeae, media was prepared according to methods reported by Wade and […]. Euro. Microbiol. Soc. Microbiol. […] This liquid medium allowed dense growth of N. gonorrhoeae for use in broth dilution tests. Protein-free liquid media (100 μL) were added to each well and two-fold dilutions were performed. The antibiotic containing wells were inoculated with an equal volume of bacterial inoculum matching a 0.5 McFarland standard. […] The lowest concentration of antibiotic that prevents growth is the MIC.

[2] = tested on: N. gonorrhoeae ATCC 49226; test: Kirby-Bauer disc diffusion against N. gonorrhoeae ATCC 49226; type: cell-based, Neisseria gonorrhoeae; settings: for Zone size, mm (±SD): ATCC 49226, disc diffusion, 20-24 h
Experimental: (§2) Antimicrobial susceptibility testing: Kirby-Bauer disc diffusion susceptibility tests were used to determine zones of inhibition (ZOIs) for N. gonorrhoeae (ATCC 49226) and three clinical isolates obtained from Louisiana State University Health Sciences Center New Orleans HIV Outpatient Clinic. Kirby-Bauer disc diffusion is one of the CDC's preferred methods of testing the susceptibility of N. gonorrhoeae. Testing was performed according to CLSI recommended procedures. In this susceptibility test, 6 mm diameter blank paper discs were impregnated with known quantities of antimicrobial drug followed by evaporation of solvent; however, ceftriaxone, azithromycin and doxycycline antimicrobial susceptibility discs were purchased from Thermo Fisher Scientific. Impregnated discs were placed onto prepared nutrient agar plates that were inoculated with N. gonorrhoeae to give a confluent lawn of growth. Suspensions of these various strains were prepared in accordance with a 1.0 McFarland standard. Inoculated agar plates were incubated for 20-24 h at 37° C. in a 5% CO2 atmosphere.
(§3) Blank discs were loaded with 50 nmol of GUMBOS, respective constituent compounds and equivalent stoichiometric unreacted mixtures of octenidine and carbenicillin that are equimolar to the purchased ceftriaxone discs (Oxoid™, Thermo Fisher). After 20-24 h incubation, diameters of ZOIs were measured using a ruler. […] Antibacterial activity was improved for octenidine when chloride ions were exchanged for the antibiotic. […] This effect was not seen, however, for an unreacted mixture of the two drugs for either N. gonorrhoeae (ATCC 49226) or clinical isolates. The ZOIs of octenidine/carbenicillin were also larger than or equal to azithromycin and doxycycline ZOIs for N. gonorrhoeae (ATCC 49226). […] This is significant as resistance rates for azithromycin have increased worldwide. Among 57 countries reporting on azithromycin susceptibility, 28 (49%) reported>5% resistance. […] Ceftriaxone produced large ZOIs as the clinical population still remains susceptible to it in the USA (only 0.2% of isolates had elevated resistance to ceftriaxone in 2017).

[3] = MTT cytotoxicity assay of ceftriaxone-based GUMBOS; type: cell-based; settings: human, HeLa cells, read-out: Acute cytotoxicity (IC50)
Experimental: Cytotoxicity Assay of GUMBOS: Cytotoxicity of GUMBOS, unreacted mixtures, and antiseptics towards healthy cells were evaluated using the MTT assay, a colorimetric dye assay, according to manufacturer's instructions. […] Stock solutions of antimicrobial agents in cell medium (1% MeOH) were diluted to a known working concentration, doubly diluted, and transferred to seeded cells. […] Cells treated with only DMEM were used as a negative control. After incubation, 15 μL of MTT were added to each well and cells were further incubated for an hour. Sodium dodecyl sulfate dimethylformamide solution was added after this additional incubation time in order to dissolve the purple formazan crystals. Cell viability was quantified at 570 nm using a microplate spectrophotometer (Eppendorf PlateReader AF2200, Hauppauge, NY). Cell viability as a percentage was determined as the ratio between treated cells and untreated (control) cells taken as 100%.

[4] = tested on: N. gonorrhoeae clinical isolates; test: Kirby-Bauer disc diffusion against N. gonorrhoeae clinical isolates; type: cell-based, Neisseria gonorrhoeae; settings: three clinical isolates, 20-24 h
Experimental: as §2, §3

[5] = tested on: N. gonorrhoeae ATCC 49226; test: MIC by micro-broth dilution against N. gonorrhoeae ATCC 49226; type: cell-based, Neisseria gonorrhoeae; settings: Neisseria gonorrhoeae, ATCC49226; ATCC 49226, micro-broth dilution, 20-24 hours
Experimental: as §1

[6] = MTT cytotoxicity assay of octenidine/carbenicillin GUMBOS; type: cell-based; settings: human
Experimental: (§4) Cytotoxicity assay: To determine cell viability, a colorimetric MTT dye assay (Promega Corp., Madison, WI, USA) was used, employing the manufacturer's instructions, as an indicator of cytotoxicity of GUMBOS towards healthy (HeLa) cells. Hela cells (ATCC CCL-2) grown in DMEM-reduced serum supplemented with 10% FBS were plated at a density of 1% 10^5 cells/mL (10^4 cells/well) in 96-well plates. Concentrations of therapeutic agents up to 500 μM (1% MeOH or DMSO) were doubly diluted in cell culture media and transferred to seeded cells. Cells were incubated for 15 min and 60 min at 37° C. in a 5% CO2 atmosphere. Cells treated with medium alone served as a negative control. At the end of the incubation period, 15 μL of MTT was added to each well and incubation continued for another hour. Absorbance was measured at 570 nm in a microplate spectrophotometer. All experiments were performed in quadruplicate. Cell viability as a percentage was determined as the ratio between treated cells and untreated (control) cells (taken as 100%).

HeLa cells = test: as above; type: cell-based; settings: HeLa; for Relative toxicity to cervical cells (in words): after 15 min of incubation
Experimental: as §4

[7] = according to Hansch et al (1995); cited from earlier work
[8] = Parallel Artificial Membrane Permeability Assay (PAMPA); type: in vitro ADME
Experimental: Predictive intestinal permeability: PAMPA was employed as an in vitro model of passive, transcellular permeation. In this technique, a 96-well microtiter plate is used as a donor plate and a membrane/acceptor compartment coated with structured tri-layers of phospholipids is placed on top; this configuration is referred to as ‘sandwiched’. Known concentrations of octenidine/carbenicillin (100 μM in 1×PBS, 0.25% DMSO) were added to the donor plate while only buffer was placed in the acceptor plate. The assay was incubated for 5 h at room temperature and the acceptor plate was measured using a UV/Vis spectroscopy plate reader (Eppendorf PlateReader AF2200). Permeability coefficients (Pe) were calculated based on initial concentration in donor well (C0), concentration in donor well at 5 h (CD), concentration in acceptor well at 5 h (CA), volumes of donor (VD) and acceptor wells (VA), well filter area (A, 0.3 cm^2) and incubation time (t, 18000 s), as calculated using the relationship in Equation 1.

Row | SMILES | MIC [1] | Zone size, mm (±SD) [2] | IC50 at 15 min ([3]; 15 min) | IC50 at 60 min ([3]; 60 min) | Zone size, mm (±SD) [4] | MIC [5] | IC50 at 15 min [6] | IC50 at 60 min [6] | Relative toxicity to cervical cells (in words) (HeLa cells) | Log P [7] | Combination effect on antibacterial activity ([2]; N. gonorrhoeae (ATCC 49226) and clinical isolates, disc diffusion) | Antibacterial activity relative to azithromycin ([2]; disc diffusion ZOIs) | Permeability class [8] | Mean effective Pe (permeability coefficient) ([8]; 100 μM in 1×PBS, 0.25% DMSO, 5 h, room temperature) | Cytotoxicity towards cervical cells (in words) (HeLa cells)
1 | CCCCCCCCN=c1ccn(CCCCCCCCCCn2ccc(=NCCCCCCCC)cc2)cc1 [Octenidine dihydrochloride, octenidine dihydrochloride] | 4.7 ± 1.8 µM | 9 ± 1 mm | 55 ± 1.29 µM | 25.9 ± 1.17 µM | 9 ± 0.3 mm | 3.1 µM | 37.4 ± 2.8 µg/mL | 16.1 ± 0.7 µg/mL | most toxic | – | – | – | – | – | –
2 | [H]/N=C(\N/C(=N/[H])NCCCCCCNC(=N)NC(=N)Nc1ccc(Cl)cc1)Nc1ccc(Cl)cc1 [chlorhexidine] | – | – | – | – | – | – | – | – | – | 0.08 | – | – | – | – | –
3 | CC1(C)S[C@@H]2[C@H](NC(=O)C(C(=O)[O-])c3ccccc3)C(=O)N2[C@H]1C(=O)[O-].CCCCCCCCNc1cc[n+](CCCCCCCCCC[n+]2ccc(NCCCCCCCC)cc2)cc1 [[OCT][CAR], octenidine/carbenicillin] | – | 40 ± 0.6 mm | – | – | 37 ± 4 mm | – | – | – | lower toxicity than the stoichiometric, unreacted mixture | – | additive effect | bioequivalent to azithromycin | high permeability (Pe values that are greater than 1.5% 10 cm/s are defined as high permeability) | 3.78×10^−6 (±0.85) cm/s | non-toxic towards cervical cells
